According to patent US20020169111A1, “Reversal of multidrug resistance in human colon carcinoma cells” (American Cyanamid Comany, priority 1998, published 2002):
Several values for one entry are separate records, joined by “and”; a condition that tells them apart may be missing. Equal entries are not always repeated. Where two headings read alike, the source gives them in different places.

Experiments:
S1-M1-3.2 cells = details: for Per Cent Survival Alone: 3 days; for Difference Score: survival alone minus survival with 3.2 μM mitoxantrone
Outline: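 Cells grown in medium with 5% FBS received reversal agents at 0.1-80 μM (triplicate per dose), with or without the antitumor agent, plus reversal agent-only wells; survival by SRB assay. Difference Score = % survival with drug alone minus % survival with drug plus antitumor agent.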

HL-60 cells = test: Dose modifying factor of FTC (SRB, EC50 ratio); type: cell-based; details: for Dose modifying factor: HL-60
Method: (§1) Cell survival was estimated after 3 days using the SRB assay. Cell survival was determined by the SRB assay and EC50 values were determined from toxicity curves. The dose modifying factor (DMF) is the ratio of EC50 values obtained in the absence and presence of reversal agent. Maximum DMF values (shown in parentheses) is the ratio of EC50 values of resistant and sensitive cells in the absence of the reversal agent. This value is obtained when resistance is reversed completely, and is the equivalent of the relative resistance.

HL-60/AR cells = type: cell-based; details: for Dose modifying factor: HL-60/AR
Method: as §1

For COc1ccc2c3c([nH]c2c1)[C@H](C=C(C)C)N1C(=O)[C@@H]2CCCN2C(=O)[C@@H]1C3 [Fumitremorgin C], the “concentration giving 40% cell death (compound alone)” value (S1-M1-3.2 cells; S1-M1-3.2 cells) was “greater than 80 μM”, the “toxicity alone (in words)” value (S1-M1-3.2 cells; S1-M1-3.2 cells, dose range tested 0.1-80 μM) was “No toxicity” and the “Per Cent Survival with 3.2 μM mitoxantrone” value (S1-M1-3.2 cells; S1-M1-3.2 cells, drug 0.1 μM) was 95 ± 4 Per Cent. For the same compound, the “Per Cent Survival Alone” value (S1-M1-3.2 cells; S1-M1-3.2 cells, drug 0.1 μM alone) was 105 ± 4 Per Cent, the “Difference Score” value (S1-M1-3.2 cells; S1-M1-3.2 cells, drug 0.1 μM) was 10 and the “Per Cent Survival with 3.2 μM mitoxantrone” value (S1-M1-3.2 cells; S1-M1-3.2 cells, drug 0.5 μM) was 39 ± 10 Per Cent. The “Per Cent Survival Alone” value (S1-M1-3.2 cells; S1-M1-3.2 cells, drug 0.5 μM alone) was 105 ± 2 Per Cent, the “Difference Score” value (S1-M1-3.2 cells; S1-M1-3.2 cells, drug 0.5 μM) was 66 and the “Per Cent Survival with 3.2 μM mitoxantrone” value (S1-M1-3.2 cells; S1-M1-3.2 cells, drug 1 μM) was 30 ± 1 Per Cent. For the same compound, the “Per Cent Survival Alone” value (S1-M1-3.2 cells; S1-M1-3.2 cells, drug 1 μM alone) was 103 ± 1 Per Cent, the “Difference Score” value (S1-M1-3.2 cells; S1-M1-3.2 cells, drug 1 μM) was 73 and the “Per Cent Survival with 3.2 μM mitoxantrone” value (S1-M1-3.2 cells; S1-M1-3.2 cells, drug 5 μM) was 24 ± 4 Per Cent. The “Per Cent Survival Alone” value (S1-M1-3.2 cells; S1-M1-3.2 cells, drug 5 μM alone) was 99 ± 5 Per Cent, the “Difference Score” value (S1-M1-3.2 cells; S1-M1-3.2 cells, drug 5 μM) was 75 and the “Per Cent Survival with 3.2 μM mitoxantrone” value (S1-M1-3.2 cells; S1-M1-3.2 cells, drug 10 μM) was 22 ± 6 Per Cent. For the same compound, the “Per Cent Survival Alone” value (S1-M1-3.2 cells; S1-M1-3.2 cells, drug 10 μM alone) was 99 ± 1 Per Cent, the “Difference Score” value (S1-M1-3.2 cells; S1-M1-3.2 cells, drug 10 μM) was 77 and the “Per Cent Survival with 3.2 μM mitoxantrone” value (S1-M1-3.2 cells; S1-M1-3.2 cells, drug 20 μM) was 17 ± 10 Per Cent. For the same compound, the “Per Cent Survival Alone” value (S1-M1-3.2 cells; S1-M1-3.2 cells, drug 20 μM alone) was 104 ± 4 Per Cent, the “Difference Score” value (S1-M1-3.2 cells; S1-M1-3.2 cells, drug 20 μM) was 87 and the “Per Cent Survival with 3.2 μM mitoxantrone” value (S1-M1-3.2 cells; S1-M1-3.2 cells, drug 40 μM) was 14 ± 11 Per Cent. For the same compound, the “Per Cent Survival Alone” value (S1-M1-3.2 cells; S1-M1-3.2 cells, drug 40 μM alone) was 108 ± 5 Per Cent, the “Difference Score” value (S1-M1-3.2 cells; S1-M1-3.2 cells, drug 40 μM) was 94 and the “Per Cent Survival with 3.2 μM mitoxantrone” value (S1-M1-3.2 cells; S1-M1-3.2 cells, drug 80 μM) was 13 ± 11 Per Cent. For the same compound, the “Per Cent Survival Alone” value (S1-M1-3.2 cells; S1-M1-3.2 cells, drug 80 μM alone) was 94 ± 4 Per Cent, the “Difference Score” value (S1-M1-3.2 cells; S1-M1-3.2 cells, drug 80 μM) was 81 and the “Toxicity (>20%)” value (S1-M1-3.2 cells; compound alone, concentration that causes greater than 20% cell death of S1-M1-3.2 cells) was over 80.0 µM. For the same compound, the “Toxicity (>20%) (μM)” value (S1-M1-3.2 cells; compound alone, concentration that causes greater than 20% cell death of S1-M1-3.2 cells, listed as FTC) was “greater than 80.0 μM”, the IC50 (S1-M1-3.2 cells; read-out: IC50 (μM), resensitizing S1-M1-3.2 cells to mitoxantrone, with 3.2 μM mitoxantrone, 50% cancer cell death, listed as FTC) was 0.35 µM and 0.3 µM and the Dose modifying factor (HL-60 cells; 5 μM FTC with Doxorubicin) was 2.1. For the same compound, the Dose modifying factor (HL-60 cells; 5 μM FTC with Mitoxantrone) was 1.3, the Dose modifying factor (HL-60 cells; 5 μM FTC with Paclitaxel) was 1.0 and the “reversal activity of FTC (fold), range over drugs” value (HL-60 cells; parental line HL-60) was 1.0-2.1 fold. For the same compound, the “reversal activity of FTC (fold), range over drugs” value (HL-60/AR cells; HL60/AR) was 2.6-3.3 fold, the Dose modifying factor (HL-60/AR cells; 5 μM FTC with Doxorubicin) was 2.8 (92.3) and the Dose modifying factor (HL-60/AR cells; 5 μM FTC with Mitoxantrone) was 3.3 (53). For the same compound, the Dose modifying factor (HL-60/AR cells; 5 μM FTC with Paclitaxel) was 2.6 (5.1) and the “reversal of resistance in MRP-positive HL60/AR cells (in words)” value (HL-60/AR cells; doxorubicin-selected) was “did not reverse resistance”.
